Source: patent publication US7261880B2, “Methods of treating Syndrome X with aliphatic polyamines” (priority 2001, dated 2007)
Read-outs that look alike come from different tables or passages of the source. Marks after values point to notes of the source that are not given here.

What was measured:
[1] = test system: patients with primary hypercholesterolemia; details: 4 weeks
[2] = test system: patients with primary hypercholesterolemia; details: Lovastatin 10 mg/day, 4 weeks
[3] = test system: patients with primary hypercholesterolemia; assay: Simvastatin Trial (6-week), colesevelam in combination with simvastatin; type: in vivo, human; details: 6 weeks

With `CC(C)c1c(C(=O)Nc2ccccc2)c(-c2ccccc2)c(-c2ccc(F)cc2)n1CC[C@@H](O)C[C@@H](O)CC(=O)O` [Atorvastatin, atorvastatin] the “Apo B mean percentage change” value ([1]; Atorvastatin 10 mg/day) was −32* %, the “HDL-C median percentage change” value ([1]; Atorvastatin 10 mg/day) was “+8%” and the “LDL-C mean percentage change” value ([1]; Atorvastatin 10 mg/day) was −38* %. For the same compound, the “TG median percentage change” value ([1]; Atorvastatin 10 mg/day) was −24* %, the “Total-C mean percentage change” value ([1]; Atorvastatin 10 mg/day) was −27* % and the “Apo B mean percentage change” value ([1]; Atorvastatin 80 mg/day) was −46* %. The “HDL-C median percentage change” value ([1]; Atorvastatin 80 mg/day) was “+6%”, the “LDL-C mean percentage change” value ([1]; Atorvastatin 80 mg/day) was −53* % and the “TG median percentage change” value ([1]; Atorvastatin 80 mg/day) was −33* %. For the same compound, the “Total-C mean percentage change” value ([1]; Atorvastatin 80 mg/day) was −39* %.
`CC[C@H](C)C(=O)O[C@H]1C[C@@H](C)C=C2C=C[C@H](C)[C@H](CC[C@@H]3C[C@@H](O)CC(=O)O3)[C@H]21` [Lovastatin, lovastatin] was tested, and the “Apo B mean percentage change” value [2] was −16%, the “HDL-C median percentage change” value [2] was “+5%” and the “LDL-C mean percentage change” value [2] was −22* %. The “TG median percentage change” value [2] was 0% and the “Total-C mean percentage change” value [2] was −14* %.
In the case of `CCC(C)(C)C(=O)O[C@H]1C[C@@H](C)C=C2C=C[C@H](C)[C@H](CC[C@@H]3C[C@@H](O)CC(=O)O3)[C@H]21` [Simvastatin, simvastatin], the “Apo B mean percentage change” value ([3]; Simvastatin 10 mg/day) is reported as −20* %, the “HDL-C median percentage change” value ([3]; Simvastatin 10 mg/day) is reported as “+3* %” and the “LDL-C mean percentage change” value ([3]; Simvastatin 10 mg/day) is reported as −26* %. The “TG median percentage change” value ([3]; Simvastatin 10 mg/day) was −17* %, the “Total-C mean percentage change” value ([3]; Simvastatin 10 mg/day) was −19* % and the “Apo B mean percentage change” value ([3]; Simvastatin 20 mg/day) was −26* %. For the same compound, the “HDL-C median percentage change” value ([3]; Simvastatin 20 mg/day) was “+7* %”, the “LDL-C mean percentage change” value ([3]; Simvastatin 20 mg/day) was −34* % and the “TG median percentage change” value ([3]; Simvastatin 20 mg/day) was −12* %. The “Total-C mean percentage change” value ([3]; Simvastatin 20 mg/day) was −23* %.
